The values below come from PubChem BioAssay (NCI).

Among the test systems are COLO 205 colon; SF-539 CNS; SN12C renal; NCI-H23 lung; HOP-92 NSCLC; DU-145 prostate; UACC-257 melanoma; RXF 393 renal; NCI/ADR-RES ovarian; M14 melanoma; SK-MEL-5 melanoma; K-562 leukemia; MCF7 breast; SK-MEL-2 melanoma; HS 578T breast; SW-620 colon; 786-0 renal; HOP-62 NSCLC; LOX IMVI melanoma; HL-60(TB) leukemia.
Holding throughout (assay): growth of human tumour cells (NCI), 48 h

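Method: 48-hour compound exposure of cells in 96-well plates, five concentrations, linear interpolation of endpoints. TGI denotes the concentration required for complete inhibition of growth.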

Consider `CC1=C2C(=O)OCC23C=COC3(C)O1` (configuration not stated), for which the TGI in the experiment with COLO 205 colon was 47.7 µM; in the experiment with SF-539 CNS, 65.9 µM; with SN12C renal it was above 100 µM; in the experiment on NCI-H23 lung it was above 100 µM; in the experiment on HOP-92 NSCLC it was above 100 µM; with DU-145 prostate it was above 100 µM. The TGI with UACC-257 melanoma was above 100 µM; with RXF 393 renal it was above 100 µM; with NCI/ADR-RES ovarian, above 100 µM; in the experiment with M14 melanoma, 85.5 µM; in the experiment on SK-MEL-5 melanoma, 35.6 µM; with K-562 leukemia, above 100 µM. Also, the TGI in the experiment with MCF7 breast, with SK-MEL-2 melanoma, in the experiment with HS 578T breast, in the experiment with SW-620 colon, in the experiment with 786-0 renal and in the experiment on HOP-62 NSCLC was above 100 µM in each case. Further, in the experiment on LOX IMVI melanoma, the TGI is above 100 µM.

Take `O=c1[nH]c(-c2cccc(F)c2)nc2ccccc12`: the TGI in the experiment on COLO 205 colon was above 100 µM; in the experiment on SN12C renal it was above 92 µM; with HL-60(TB) leukemia it was above 100 µM; with NCI-H23 lung, above 65.8 µM; with HOP-92 NSCLC, above 72 µM; in the experiment on DU-145 prostate it was above 100 µM. The TGI was above 100 µM in the experiment with UACC-257 melanoma; 89.4 µM with RXF 393 renal; above 100 µM with NCI/ADR-RES ovarian; above 100 µM in the experiment on M14 melanoma; above 100 µM in the experiment on SK-MEL-5 melanoma; above 100 µM with K-562 leukemia. Also, the TGI with MCF7 breast is above 100 µM; in the experiment with SK-MEL-2 melanoma it was above 100 µM; in the experiment on HS 578T breast, above 78.5 µM; in the experiment on SW-620 colon, above 100 µM; in the experiment on 786-0 renal, above 100 µM; in the experiment with HOP-62 NSCLC, 52.4 µM. The same compound yielded a TGI in the experiment on LOX IMVI melanoma above 100 µM.

Regarding `O=C(NC1CCC(=O)N1C(=O)OCc1ccccc1)OCc1ccccc1` (configuration not stated), the TGI in the experiment on COLO 205 colon, in the experiment with SF-539 CNS, in the experiment with SN12C renal, with NCI-H23 lung, in the experiment on HOP-92 NSCLC and in the experiment on DU-145 prostate was above 100 µM each time. The TGI in the experiment with UACC-257 melanoma, in the experiment with RXF 393 renal, with NCI/ADR-RES ovarian, in the experiment with M14 melanoma, in the experiment with SK-MEL-5 melanoma and with K-562 leukemia was above 100 µM each time. Besides, the TGI in the experiment on MCF7 breast, in the experiment with SK-MEL-2 melanoma, with HS 578T breast, in the experiment on SW-620 colon, with 786-0 renal and in the experiment on HOP-62 NSCLC was above 100 µM in each case.

With `Cc1cc2c(cc1Cl)SC(N/N=C(\N)c1ccc(Cl)cc1)=NS2(=O)=O`, the TGI with COLO 205 colon was above 100 µM; with SF-539 CNS, 84.2 µM; with SN12C renal it was above 100 µM; in the experiment with HL-60(TB) leukemia it was above 100 µM; in the experiment on NCI-H23 lung, above 100 µM; with HOP-92 NSCLC, 58.9 µM. For the same compound, the TGI with DU-145 prostate, with UACC-257 melanoma, with RXF 393 renal, with NCI/ADR-RES ovarian, with M14 melanoma and with SK-MEL-5 melanoma was above 100 µM in each case. The TGI is above 100 µM in the experiment on K-562 leukemia; 64.7 µM in the experiment with MCF7 breast; above 100 µM in the experiment on HS 578T breast; above 100 µM with SW-620 colon; above 100 µM in the experiment on 786-0 renal; above 100 µM in the experiment on HOP-62 NSCLC. In addition, the TGI in the experiment with LOX IMVI melanoma was above 100 µM.

Take `Cc1cc2c(c(C=Nc3ccc([N+](=O)[O-])cc3)c1)OC1(C=C2)Oc2ccccc2C(=O)N1C` (configuration not stated): the TGI with COLO 205 colon was 54.3 µM; in the experiment on SN12C renal, 46.2 µM; in the experiment with HL-60(TB) leukemia it was above 100 µM; in the experiment with NCI-H23 lung, 35.7 µM; in the experiment with HOP-92 NSCLC, 50.9 µM; in the experiment with DU-145 prostate, 54.2 µM. Besides, the TGI in the experiment with UACC-257 melanoma is 42.4 µM; in the experiment with RXF 393 renal, 47.5 µM; in the experiment with NCI/ADR-RES ovarian, 49.1 µM; in the experiment on M14 melanoma it was 57.8 µM; in the experiment on SK-MEL-5 melanoma, above 100 µM; in the experiment with K-562 leukemia it was 91.5 µM. Moreover, the TGI in the experiment with MCF7 breast was 46 µM; in the experiment with SK-MEL-2 melanoma, 57.9 µM; in the experiment on HS 578T breast, above 100 µM; in the experiment with SW-620 colon it was 81.1 µM; in the experiment with 786-0 renal, 54.3 µM; with HOP-62 NSCLC, 82.9 µM. The TGI with LOX IMVI melanoma came out at 27.1 µM.

`CC(C)(C)[Si](C)(C)OCCCCC1CC2(S(=O)(=O)C3=CC=C=C=C3)ON1CC2S(=O)(=O)c1ccccc1` (configuration not stated): the TGI in the experiment with COLO 205 colon, with SF-539 CNS, with SN12C renal, with NCI-H23 lung, in the experiment with HOP-92 NSCLC and with DU-145 prostate was above 100 µM throughout. Further, the TGI in the experiment with UACC-257 melanoma, in the experiment on RXF 393 renal, in the experiment on NCI/ADR-RES ovarian, in the experiment on M14 melanoma, in the experiment on SK-MEL-5 melanoma and in the experiment with K-562 leukemia was above 100 µM throughout. Further, the TGI in the experiment with MCF7 breast, with SK-MEL-2 melanoma, with HS 578T breast, in the experiment with SW-620 colon, in the experiment on 786-0 renal and with HOP-62 NSCLC was above 100 µM throughout.
